This is an account of results in patent publication US8003766B2, “Monoclonal antibody specific to ochratoxin A” (priority 2009, dated 2011).

Test [1] deals with 9C9H9 mAb (anti-OTA mAb). Kind of test: indirect competitive ELISA (ciELISA). It counts as binding, mouse. The conditions noted are these: for IC50 of binding of mAb to OTA-OVA by free toxin: OTA-OVA coated as solid-phase antigen, FIG. 2B. How it is done: (§1) Both the cdELISA (direct competitive ELISA) and ciELISA (indirect competitive ELISA) were used to determine the specificity of 9C9H9 mAb.
Indirect Competitive ELISA was than used to characterize each mAb. Briefly, each well of a microtiter plate was coated with 0.1 mL of the OTA-OVA and kept at 4° C. overnight. After the plate had been washed four times with Tween-PBS (0.35 mL/well; 0.05% Tween 20 in PBS) using an automated ELISA washer, 0.17 mL of gelatin-PBS (0.17 mL/well; 0.1% gelatin in PBS) was added and allowed to incubate at 37° C. for 30 min. The plate was washed again and 0.05 mL of OTA standard with concentrations from 0.01 to 100 ng/mL or extracted samples (0.05 mL/well in PBS) were added to each well, and then the anti-OTA mAb (25 ng/mL in PBS, 0.05 mL/well) was added to all wells and incubated at 37° C. for 50 min. After incubation, the plate was washed four times with Tween-PBS, and 0.1 mL of goat antimouse IgG-HRP conjugate (1:20000 dilution) was added and incubated at 37° C. for 45 min. The plate was washed four times with Tween-PBS, and 0.1 mL of TMB substrate solution was added. After 10 min of incubation at room temperature, 0.1 mL of 1 N hydrochloric acid was added to stop the reaction. Absorbance at 450 nm was determined in a Vmax automatic ELISA reader.

Test [2] deals with 9C9H9 mAb (anti-OTA mAb). Description: direct competitive ELISA (cdELISA). It counts as binding, mouse. The conditions noted are these: for concentrations causing 50% inhibition (IC50) binding of mAb to OTA-OVA by free toxin: FIG. 2A. How it is done: as §1
Another ELISA method (direct competitive ELISA) was used to characterize mAb. The rabbit anti-mouse-Fc antibody was diluted in PBS (2 μg/mL), and 0.1 mL of the diluted form was coated onto each well. After incubation at 37° C. for 1 h and washing with Tween-PBS. The anti-OTA mAb supernatant was diluted in PBS (5 μg/mL) and 0.1 mL of the diluted form was used to coat each well. After the plate had been incubated at 4° C. overnight, it was washed with Tween-PBS followed by blocking with gelatin-PBS at 37° C. for 30 min. The plate was washed again with Tween-PBS four times, and then OTA standard (0.05 mL/well in PBS) concentrations from 0.01 to 100 ng/mL or samples together with the OTA-HRP conjugate (30 ng/mL, in PBS, 0.05 mL/well) were added and incubated at 37° C. for 50 min. The plate was washed four times with PBS-Tween, and 0.1 mL of TMB substrate solution was added. After incubation at room temperature in the dark for 10 min, the reaction was terminated by adding 0.1 mL of 1 N HCl. The absorbance at 450 nm was determined in the Vmax automatic ELISA reader.
For orientation: ELISA stands for enzyme-linked immunosorbent assay.

The mark [3] stands for this setting: at a concentration as high as 100 μg/mL.

In the case of `C[C@@H]1Cc2c(Cl)cc(C(=O)N[C@@H](Cc3ccccc3)C(=O)O)c(O)c2C(=O)O1` [OTA, ochratoxin A], the “IC50 of binding of mAb to OTA-OVA by free toxin” value (from here on “IC50 of binding … by free toxin”) in test [1] is 0.28 ng/mL. Also, in test [2], the “concentrations causing 50% inhibition (IC50) binding of mAb to OTA-OVA by free toxin” value is given as 0.32 ng/mL.
For the molecule `N[C@@H](Cc1ccccc1)C(=O)O` [phenylalanine], in test [1] (setting [3]), the “inhibition of the binding of mAb to the marker antigen (OTA-OVA)” value is given as “did not inhibit”. Further, the “inhibition of the binding of mAb to the marker antigen (OTA-HRP)” value in test [2] (setting [3]) is on record as “did not inhibit”.
On to `C[C@@H]1Cc2ccc(C(=O)N[C@@H](Cc3ccccc3)C(=O)O)c(O)c2C(=O)O1` [OTB, ochratoxin B], for which the “IC50 of binding … by free toxin” value in test [1] worked out at 0.35 ng/mL. The “concentrations causing 50% inhibition (IC50) binding of mAb to OTA-OVA by free toxin” value in test [2] amounted to 0.17 ng/mL.
Consider `CCOC(=O)[C@H](Cc1ccccc1)NC(=O)c1cc(Cl)c2c(c1O)C(=O)O[C@H](C)C2` [OTC, ochratoxin C], for which the “IC50 of binding … by free toxin” value in test [1] is given as 0.25 ng/mL. In addition, in test [2], the “concentrations causing 50% inhibition (IC50) binding of mAb to OTA-OVA by free toxin” value is recorded as 0.28 ng/mL.
